Experimental data from patent publication US12582688B2, “Compositions for the treatment of hypopigmentation” (University of Pretoria, priority 2021, dated 2026).
Where no end group is shown, it is not given here.

Assays:
[1] = tested on: B16-F10 mouse melanocytes; assay: Melanin production (intracellular and extracellular) in B16-F10 mouse melanocytes; type: cell-based; settings: B16F10 cells, 72 hours; A. linearis at 500 μg/ml (highest concentration tested)
Protocol: Cultured B16F10 mouse melanocytes (passage number 6) were trypsinized (0.25% trypsin and 0.1% EDTA at 37° C. for 5-10 min). Cells (2×10^4 cells/well in 1.9 ml of MEM) were inoculated into 24-well plates using a pipette (FALCON 353046, Becton Dickinson Labware, NJ, U.S.A.), and incubated for 24 hours at 37° C. in the CO2 incubator. After 24-hour incubation, 100 μl of each sample solution was added to each well in duplicate, and the 24-well plate was incubated for 72 hours at 37° C. in the CO2 incubator. […] A 0.5% DMSO concentration was used as a negative control. After incubation, the cultured medium was removed, and assayed for extracellular melanin. The cultured medium was centrifuged (900 g, 20 min at 4° C.) to give a supernatant. One millilitre of a mixture of 0.4 M HEPES buffer (pH 6.8) and EtOH (9:1, v/v) was added to 1 ml of the supernatant was separated. The OD at 475 nm of the resulting solution was measured, and the amount of extracellular melanin was determined. The remaining melanocytes were digested by the addition of […] of CMF-D-PBS and trypsinized (0.25% trypsin and 0.1% EDTA at 37° C. for 5 to 10 min), and then incubated for 16 hours at room temperature. Spectrophotometric analysis of the amount of intracellular melanin was then performed at 475 nm.

[2] = tested on: Primary human melanocytes and primary human keratinocytes; assay: Melanin transfer in melanocyte/keratinocyte co-culture, immunofluorescence; type: cell-based; settings: NHM/NHK co-culture, 24 hours
Protocol: Primary human melanocytes and primary human keratinocytes were cultured in normal Dulbecco's Modified Eagle's Medium (DMEM) containing melanocyte and keratinocyte growth factors respectively. Melanocytes (2.5×10^3 cells/well) were seeded on gelatine treated round coverslips in 24 well plates and were incubated at 37° C. for 72 hours. After the 72 hours the melanocyte medium was removed and medium (with a higher Ca concentration and keratinocyte growth factors) containing the keratinocytes (25×10^3 cells/well) was added to each well. The co-culture was incubated overnight to ensure that the keratinocytes attached. […] After 24 hours the treated cells and untreated cells were analysed with immunofluorescence ([…], et al., 2008). The 24-hour co-cultured cells were washed with PBS and fixed with MeOH (added at a temperature of -20° C.) and incubated for 4 minutes at -20° C. The fixed cells were washed with PBS to remove all the MeOH and incubated for 1 hour at room temperature with goat serum (0.5% in PBS) to remove effects of background noise. […] The washed coverslips were transferred to microscope slides containing mounting media and stored covered at 4° C., until analysed using the fluorescent microscope. The statistical significance in the melanin transfer results obtained for the different treatments, was determined with a student's T-test. […]

Compound	additional melanin extracellularly [1] [µg/mL]	additional melanin intracellularly [1] [µg/mL]	additional melanin produced than in the untreated cells (total) [1] [µg/mL]	melanocyte dendricity and melanosomes in the dendrite tips [2]	melanosomes around the keratinocyte nuclei (positive keratinocytes) ([2]; versus untreated cells)
Cn1c(=O)c2[nH]cnc2n(C)c1=O [theophylline]	19	21	40	–	–
alpha melanocyte stimulating hormone (SYSMEHFRWGKPV; ends and bridges not checked; UniProt P01189 138-150, looked up) [α-MSH, positive control for melanin transfer]	–	–	–	increase in the fluorescence in the tip of the dendrites	higher presence of melanosomes around the keratinocyte nuclei
